Experimental data: PMC2634724 (British Journal of Cancer, 2009)
Several values for one entry are separate records, joined by “and”; a condition that tells them apart may be missing. Equal entries are not always repeated. Where two headings read alike, the source gives them in different places.

Assays:
advanced solid tumours [1] = conditions: prior docetaxel therapy in the same two patients with metastatic breast cancer; patient history; cited from earlier work
advanced solid tumours [2] = assay: Anti-tumour activity, Response Evaluation Criteria in Solid Tumors; format: in vivo, human
Procedure: (§2) Patients receiving at least one dose of study drug medications were evaluated weekly for safety using the National Cancer Institute Common Toxicity Criteria version 2.0. Safety assessments consisted of clinical examinations and scheduled laboratory evaluations and electrocardiograms. […] Treatment with the combination was discontinued on any grade 4 toxicity or failure to return to grade ⩽1 within 2 weeks. […] The concomitant use of any drugs that may interfere with cytochrome CYP450-3A was discouraged. […] Anti-tumour activity was assessed using Response Evaluation Criteria in Solid Tumors.

S6K1 [3] = tested on: S6K1; parameters: method as in Tabernero et al, 2008; conditions: weekly dosing (20, 50, or 70 mg), immunohistochemistry; ref Tabernero et al, 2008; cited from earlier work
[4] = tested on: patients with advanced cancers; parameters: method as in Tabernero et al, 2008; conditions: single-agent everolimus 70 mg weekly; ref Tabernero et al, 2008; cited from earlier work
[5] = tested on: patients with advanced solid tumours; conditions: human, in vivo
Procedure: as §2
(§3) Dose-limiting toxicity was defined as occurring during the first 28-day cycle, suspected of being drug related, and included any grade 4 toxicity, any grade 3 non-haematological toxicity despite preventive therapy, or grade ⩾2 neutropenia, or thrombocytopenia failing to revert to grade ⩽1 within 2 weeks. Three patients were entered per dose level, with expansion to six patients if one of three patients experienced DLT. If DLT occurred in none of three or no more than one of six patients in dose level 1, doses would be escalated to dose level 2. Dose-limiting toxicity in more than one of three or more than two of six patients would be considered unacceptable.

[6] = tested on: patients with advanced solid tumours; assay: Safety and dose-limiting toxicity, NCI Common Toxicity Criteria version 2.0; conditions: everolimus + paclitaxel, 16 patients
Procedure: as §2, §3

[7] = as a single agent; no reference given; cited from earlier work
S6K1 [8] = tested on: S6K1; parameters: method as in O'Donnell et al, 2008; conditions: ref O'Donnell et al, 2008, cited from earlier work
[9] = tested on: trastuzumab-resistant breast cancer; parameters: method as in André et al, 2008; conditions: everolimus and paclitaxel with trastuzumab; population pre-treated with trastuzumab and taxanes; preliminary; ref André et al, 2008; cited from earlier work
[10] = Pharmacokinetics of everolimus in whole blood (LC-MS, non-compartmental); format: in vivo, human; conditions: for Tmax / Cmax / half-life: whole blood; for Cmax / half-life: mean (s.d.)
Procedure: (§1) For everolimus, sampling was carried out predose and 1, 2, 4, 6, 12, 24, 48, 96, and 168 h after administration. Everolimus was measured in whole blood by liquid chromatography–mass spectrometry after liquid extraction, its lower limit of quantification being 0.368 ng ml^−1. […] Pharmacokinetic parameters were derived by standard non-compartmental methods of analysis (WinNonlin Pro 5.0). The measured parameters included the maximum plasma concentration (Cmax), time to reach Cmax (tmax), and the truncated area under the time–concentration curve (AUClast).

tumour models = tested on: tumour models; parameters: method as in O'Reilly et al, 2003; conditions: schedule effect, ref O'Reilly et al, 2003; cited from earlier work
cervical cancer = tested on: cervical cancer; parameters: method as in Mori et al, 2007; conditions: weekly paclitaxel, cervical cancer patients; ref Mori et al, 2007; cited from earlier work
[11] = as a single agent; cited from earlier work
clinical = conditions: human, in vivo, iv
Procedure: as §1

[12] = everolimus + paclitaxel, 16 patients
[13] = human, po, 15 mg, everolimus 15 mg oral alone, dose level 1, n=3
[14] = human, po, 30 mg, everolimus 30 mg oral alone, dose level 2, n=4
[15] = human, po, everolimus 15 mg oral with paclitaxel 80 mg m^−2, dose level 1, n=3
[16] = human, po, everolimus 30 mg oral with paclitaxel 80 mg m^−2, dose level 2, n=7

For `CC(=O)O[C@@]12CO[C@@H]1C[C@H](O)[C@@]1(C)C(=O)[C@H](O)C3=C(C)[C@@H](OC(=O)[C@H](O)[C@@H](NC(=O)OC(C)(C)C)c4ccccc4)C[C@@](O)([C@@H](OC(=O)c4ccccc4)[C@H]21)C3(C)C` [docetaxel], the “Duration of tumour stabilisation previously recorded” value (advanced solid tumours [1]) is given as 3.7 months and 3.5 months.

In the case of `CO[C@H]1C[C@@H]2CC[C@@H](C)[C@@](O)(O2)C(=O)C(=O)N2CCCC[C@H]2C(=O)O[C@H]([C@H](C)C[C@@H]2CC[C@@H](OCCO)[C@H](OC)C2)CC(=O)[C@H](C)/C=C(\C)[C@@H](O)[C@@H](OC)C(=O)[C@H](C)C[C@H](C)/C=C/C=C/C=C/1C` [everolimus, Everolimus], the Objective response (advanced solid tumours [2]; [12]) is reported as “No objective response”, the “Tumour stabilisation reported, patients” value (advanced solid tumours [2]; [12]) is reported as 11 patients and the “Sustained tumour stabilisation for more than 4 months, patients” value (advanced solid tumours [2]; everolimus + paclitaxel, breast (two), ovarian (two), thyroid carcinoma (one), liposarcoma (one)) is reported as “six”. For the same compound, the “Duration of tumour stabilisation” value (advanced solid tumours [2]; two patients with metastatic breast cancer at dose level 2 (everolimus 30 mg + paclitaxel)) was greater than 6 months, the “Dose with confirmed inhibition of S6K1 in paired tumour tissue biopsies” value (S6K1 [3]) was no less than 20 mg and the Dose-limiting toxicities observed [4] was “grade 3 stomatitis, neutropenia, and hyperglycaemia”. For the same compound, the “Dose interruptions in any cycle, n (%)” value [5] was 8 (50.0), the Toxicity-related death [6] was “No toxicity-related death” and the Terminal half-life [7] was “about 30 h”. For the same compound, the “Duration of sustained inhibition of S6K1 activity in peripheral blood mononuclear cells” value (S6K1 [8]; single-agent everolimus at doses ⩾20 mg per week) was “at least 7 days”, the “Dose with consistent inhibition of S6K1 activity in peripheral blood mononuclear cells” value (S6K1 [8]; single-agent everolimus) was no less than 20 mg per week and the Rate of response [9] was 46%. For the same compound, the Tmax ([10]; everolimus 30 mg oral with paclitaxel 80 mg m^−2, dose level 2, n=7, median (range)) was 1.0 (1–4) h, the “Change in tmax, Cmax and AUClast when given in combination” value ([10]; everolimus with paclitaxel vs alone) was “no meaningful change” and the Cmax [10, 13] was 75.2 ± 37.4 ng/mL. It also gave a half-life [10, 13] of 29.5 ± 8.5 h, a Cmax [10, 14] of 93 ± 28.6 ng/mL and a half-life [10, 14] of 26.9 ± 7.1 h. The Cmax [10, 15] was 57.9 ± 35.8 ng/mL, the half-life [10, 15] was 24.6 ± 3.6 h and the Cmax [10, 16] was 94.5 ± 60.1 ng/mL. The half-life [10, 16] was 27.4 ± 5.6 h, the Tmax ([10]; human, po, read-out: tmax) was 1 h and the Tmax ([10]; human, everolimus 15 mg oral alone, dose level 1, n=3, median (range), read-out: tmax) was 1 h. The Tmax ([10]; human, everolimus 30 mg oral alone, dose level 2, n=4, median (range), read-out: tmax) was 1 h, the “Change of everolimus AUC with concomitant fluconazole” value ([10]; one patient at dose level 2 (everolimus 30 mg), concomitant medication with fluconazole) was “threefold increase” and the “Effect of in vivo combination with paclitaxel” value (tumour models) was “additive and synergistic effects”.

In the case of `CC(=O)O[C@H]1C(=O)[C@@]2(C)[C@H]([C@H](OC(=O)c3ccccc3)[C@]3(O)C[C@H](OC(=O)[C@H](O)[C@@H](NC(=O)c4ccccc4)c4ccccc4)C(C)=C1C3(C)C)[C@]1(OC(C)=O)CO[C@@H]1C[C@@H]2O` [paclitaxel], the “Time apoptosis could be induced after treatment” value (cervical cancer) is listed as “up to 1 week”, the “Time paclitaxel could be detected in tissue” value (cervical cancer) is listed as “up to 6 days” and the Terminal half-life [11] is listed as “about 10 h”. It also gave a Tmax (clinical) of 4.8 min.
